Earlier results on one compound are cited in patent publication US20220257802A1, “COMPRESSED SOLID COMPOSITION FOR MRI” (Ascelia Pharma AB, priority 2019, published 2022).

The conditions of this data set: after oral intake.

SMILES strings stand for the structures.

For the compound `[Mn+2]` [manganese], the “first-pass effect in the liver” value is listed as “up to 98%”.
